{"source": "patent US20220105096A1", "about": "“INHIBITORS OF HUMAN IMMUNODEFICIENCY VIRUS REPLICATION” (ViiV HEALTHCARE UK (NO.5) LIMITED, priority 2019, published 2022)", "key": {"[1]": {"experiment": "Metabolism in rat liver microsomes", "format": "in vitro ADME", "settings": "pH 7.4, 1 μM compound, 1 mg/mL microsomes, NADPH, 37° C., read-out: Rat liver microsome T1/2", "protocol": "Liver microsomes from human, rat dog and monkey were thawed and diluted to a final concentration of 1 mg/mL in 100 mM potassium phosphate buffer (pH 7.4). Test compounds and controls were prepared at 100× final concentration of 1 μM in 1:1 acetonitrile:water (v/v) and aliquoted into microsomal mixture. The mixture was preincubated at 37° C. in a shaking water bath for 10 minutes. The incubations were performed in duplicate. Three controls were included in the incubations; warfarin, phenacetin, and verapamil. After the preincubation, the reaction was initiated with NADPH at a final concentration of 1 mM. At 0, 5, 15, 30, 45 and 60 minutes, 25 μL of sample was removed and quenched with 300 μL of acetonitrile containing internal standard (Telmisartan). The samples were vortexed for 5 minutes at 1200 rpm and then centrifuged at 4000 rpm for 10 min. A 100 μL aliquot of supernatant was diluted three-fold with water and injected on an Exion LC 4500 Triple Quad LC-MS/MS system. Results were reported as a percentage of parent remaining and was calculated from peak area ratios of test compound remaining after at each time point and compared to time zero incubation."}, "human hepatocytes": {"system": "human hepatocytes", "experiment": "Metabolism in human hepatocytes", "format": "in vitro ADME", "settings": "0.5 μM", "protocol": "Cryopreserved hepatocytes in suspension from human, monkey, dog, rat and mouse were thawed and diluted in pre-warmed William's Medium E (pH 7.4). Aliquots of the hepatocyte suspension were added to test compound working solutions prepared in pre-warmed William's Medium E (pH 7.4) to achieve final concentrations of 0.5 μM in 0.5×10^6 cells per milliliter and ≤0.25% DMSO. These samples were incubated at 37° C. with 5% carbon dioxide and shaking. The incubations were performed in singlet. At time points 0, 10, 30, 60, 120 and 240 minutes, a 50 μL aliquot of the incubation mixtures was removed and added to a 100 μL solution of acetonitrile containing internal standard and the mixture was then centrifuged at 4° C. and 3500 rpm for 15 minutes. Following completion of the experiment, samples were analyzed by LC-MS/MS. Metabolic stability results were reported as a percentage of parent test compound remaining. This percentage is calculated by dividing the LCMS peak area of test compound following incubation (tx) by the LCMS peak area of test compound at time-zero (t0) just prior to incubation.\nThe elimination rate constant (k, min^−1) is calculated using nonlinear regression fitting with the following equation: […]\nwhere: C0 is the initial concentration represented as the peak area ratio (test compound peak area/internal standard peak area); Ct is the concentration at t represented as the area ratio (test compound peak area/internal standard peak area); e is the base of the natural logarithm t is the time (min); k is the elimination rate constant (min^−1). The half-life (t1/2, min) is calculated using the following equation: […]\nwhere: k is the elimination rate constant (min^−1). The in vitro intrinsic clearance (CLint, mL/min/million cells) is calculated using the following equation: […]\nwhere: t1/2 is the half-life; n is the number of cells per mL."}, "[2]": {"experiment": "Pharmacokinetic parameters in vivo, mouse", "parameters": "species or system male CD1 mice", "settings": "male, CD1, plasma", "protocol": "PK was investigated in male CD1 mice, Wistar Han Rats, Cynomolgus monkeys, and Beagle Dogs. Two groups of animals (N=3 per group) received test compound either as an intravenous (IV) dose (1 mg/kg) or by oral gavage (5 mg/kg solution and suspension). Drug was formulated in 90% PEG 400, 10% ethanol for IV administration and in 90% PEG400, 5% ethanol for PO administration. Blood samples were collected at 0.167, 0.25, 0.5, 0.75, 1, 2, 3, 5, 7, 24, 48, 72 and 96 h post dose for IV; 0.25, 0.5, 0.75, 1, 2, 3, 5, 7, 24, 48, 72 and 96 h post dose for oral. Blood samples were collected into K3EDTA tubes and centrifuged at 1500 to 2000×g to obtain plasma. Plasma samples were stored at −20° C. until analysis by LC-MS/MS. All […] samples were injected on an Exion LC 4500 Triple Quad™ LC-MS/MS system. The analytical column used was a Phenomenex C18 (C18, 4.6 mm×50 mm, 5 μm) maintained at room temperature. Mobile Phase A consisted of 0.1% (v/v) formic acid in MilliQ water. Mobile Phase B consisted of 100% methanol. The flow rate was 1 mL/min. […] All LC-MS/MS analysis parameters are captured electronically in the raw data files. The PK parameters were obtained by non-compartmental analysis of plasma concentration vs time data (Phoenix WinNonlin v8). The peak concentration (Cmax) and time for Cmax (Tmax) were recorded directly from experimental observations. The area under the curve from time zero to the last sampling time [AUC0-T] and the area under the curve from time zero to infinity [AUCINF] were calculated using a combination of linear and log trapezoidal summations. The total plasma clearance (CLTp), steady-state volume of distribution (Vss), apparent elimination half-life (T-HALF), and mean residence time (MRT) were estimated after IV administration. Estimations of AUC and T-HALF were made using a minimum of three timepoints with quantifiable concentrations. The absolute oral bioavailability (F) was estimated as the ratio of dose-normalized AUC values following oral and IV doses."}, "[3]": {"system": "primary human hepatocytes", "experiment": "Cytotoxicity assessed in parallel in the CYP induction assay", "format": "cell-based", "settings": "concentrations tested up to 30 μM, 48 hours", "protocol": "Compounds were tested in a CYP induction assay using inducible cryopreserved human primary hepatocytes from three donors to determine the potential to cause induction (as measured by an increase in mRNA transcription) of CYP2B6. Test compounds (0.12 to 30 μM final concentration) were incubated for 48 hours with primary human hepatocytes naturally expressing all nuclear receptors involved in regulation of expression levels of various CYP enzymes. Fresh solutions of test compounds and controls were diluted in assay media and added every 24 hours for two consecutive days, with a final DMSO concentration of 0.1%. At the end of the incubation, the integrity of cell monolayers, cell density and viability were evaluated to assess cytotoxicity effects. […] It was then used in reverse transcription polymerase chain reactions (RT-PCR) to quantify the amount of specific mRNA species encoding human CYP3A4, CYP2B6, and CYP1A2 genes.\nThe induction potential of test compounds and controls was compared to known CYP2B6 inducer Phenobarbital (1000 μM). The results of this assay are expressed as fold induction. Fold induction was calculated as a ratio of mRNA level in cells treated with test compound over that in cells treated with DMSO (solvent control) alone, the basal mRNA level, and thus represents the induction potential of the test compound. […]"}}, "data": [{"smiles": "Cn1nc(NS(C)(=O)=O)c2c(Cl)ccc(-n3c([C@H](Cc4cc(F)cc(F)c4)NC(=O)Cn4nc(C(F)F)c5c4C(F)(F)[C@@H]4C[C@H]54)nc4nc(OCCC(C)(F)F)ccc4c3=O)c21", "note": "(atropisomer, axis not shown; (P)) [Example 1, N—((S)-1-((3P)-3-(4-chloro-1-methyl-3-(methylsulfonamido)-1H-indazol-7-yl)-7-(3,3-difluorobutoxy)-4-oxo-3,4-dihydropyrido[2,3-d]pyrimidin-2-yl)-2-(3,5-difluorophenyl)ethyl)-2-((3bS,4aR)-3-(difluoromethyl)-5,5-difluoro-3b,4,4a,5-tetrahydro-1H-cyclopropa[3,4]cyclopenta[1,2-c]pyrazol-1-yl)acetamide]", "values": [{"measurement": "half-life at 1 μM", "setting": "[1]", "result": "> 2", "unit": "h"}, {"measurement": "intrinsic clearance in human hepatocytes", "setting": "human hepatocytes", "result": "less than 0.2 mL/min/g liver"}, {"measurement": "half-life in human hepatocytes", "setting": "human hepatocytes; 0.5×10^6 cells per milliliter", "result": "could not be measured"}, {"measurement": "parent remaining after incubation in human hepatocytes", "setting": "human hepatocytes; 240 minute incubation", "result": "no metabolism was measurable"}, {"measurement": "clearance", "setting": "[2]; IV 1 mg/kg", "result": 1.77, "unit": "mL/min/kg"}, {"measurement": "half-life", "setting": "[2]; IV 1 mg/kg", "result": 7.8, "unit": "h"}, {"measurement": "Vd", "setting": "[2]; IV 1 mg/kg, read-out: Vss", "result": 1.14, "unit": "L/kg"}, {"measurement": "bioavailability", "setting": "[2]; oral gavage 5 mg/kg vs IV 1 mg/kg", "result": 76.7, "unit": "%"}, {"measurement": "cytotoxicity in CYP induction assay", "setting": "[3]", "result": "No cytotoxicity was observed"}]}]}
